Measured values reported in ChEMBL document CHEMBL4017496 (J Med Chem, 2017).
pKi: −log10 of the molar value. The source made the active and inactive calls. The calls are words filed in the database; no cut-off is given here.

Key:
[1] = Induction of adipogenesis in human bone marrow-derived mesenchymal stem cells assessed as adiponectin level at 20 uM measured on day 7 after 48 hrs by ELISA; assay type: functional, Mesenchymal stem cell
[2] = target: T1, Peroxisome proliferator-activated receptor delta (Homo sapiens) (UniProt Q03181); assay: Displacement of Fluormone-Pan-PPAR Green from human GST-tagged PPARdelta LBD at 10 uM by TR-FRET assay relative to control
T1 sequence (whole entry): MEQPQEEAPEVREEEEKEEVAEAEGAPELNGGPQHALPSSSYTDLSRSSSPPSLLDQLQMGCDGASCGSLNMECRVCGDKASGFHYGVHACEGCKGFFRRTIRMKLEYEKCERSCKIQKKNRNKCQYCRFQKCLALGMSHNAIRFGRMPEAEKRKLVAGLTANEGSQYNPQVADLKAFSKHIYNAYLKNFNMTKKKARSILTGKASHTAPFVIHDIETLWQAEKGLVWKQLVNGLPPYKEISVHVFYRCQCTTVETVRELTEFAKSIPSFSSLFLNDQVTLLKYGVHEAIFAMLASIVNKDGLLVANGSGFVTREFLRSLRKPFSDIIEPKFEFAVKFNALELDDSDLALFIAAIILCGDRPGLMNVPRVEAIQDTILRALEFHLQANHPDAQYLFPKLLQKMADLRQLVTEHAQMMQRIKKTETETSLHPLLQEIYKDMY

[3] = Induction of adipogenesis in human bone marrow-derived mesenchymal stem cells assessed as adiponectin level at 4 uM measured on day 7 after 48 hrs by ELISA; assay type: functional, Mesenchymal stem cell
[4] = Induction of adipogenesis in mouse 7F2 cells transfected with human AR assessed as increase in […] at 1 to 10 uM after 7 to 12 days by staining based oil red O phase contrast microscopic method relative to control; assay type: functional
Mesenchymal stem cell [5] = assay: Induction of adipogenesis in human bone marrow-derived mesenchymal stem cells assessed as increase in adiponectin production at 20.4 uM after 7 days in presence of IDX; assay type: functional, cell-based
[6] = target: T2, Peroxisome proliferator-activated receptor gamma (Homo sapiens) (UniProt P37231); assay: Transactivation of human PPARgamma expressed in African green monkey CV1 cells at 10 uM by luciferase reporter gene assay relative to control; assay type: cell-based
T2 sequence (whole entry): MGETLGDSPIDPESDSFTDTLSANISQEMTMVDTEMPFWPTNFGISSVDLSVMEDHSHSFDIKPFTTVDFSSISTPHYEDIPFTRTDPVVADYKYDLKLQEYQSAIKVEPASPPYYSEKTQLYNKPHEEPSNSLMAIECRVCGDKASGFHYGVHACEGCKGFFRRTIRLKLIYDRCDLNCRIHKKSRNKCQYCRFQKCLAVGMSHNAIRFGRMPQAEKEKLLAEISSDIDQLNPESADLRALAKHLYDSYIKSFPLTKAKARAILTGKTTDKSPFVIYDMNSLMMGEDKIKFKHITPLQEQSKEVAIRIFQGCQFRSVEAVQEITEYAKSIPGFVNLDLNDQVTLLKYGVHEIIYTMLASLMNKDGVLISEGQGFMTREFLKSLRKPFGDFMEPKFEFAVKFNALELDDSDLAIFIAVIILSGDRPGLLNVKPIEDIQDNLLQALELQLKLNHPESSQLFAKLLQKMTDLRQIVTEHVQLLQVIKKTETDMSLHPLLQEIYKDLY

[7] = target: T3, Peroxisome proliferator-activated receptor delta (Homo sapiens, UniProt Q03181); assay: Displacement of Fluormone-Pan-PPAR Green from human GST-tagged PPARdelta LBD by TR-FRET assay
T3 sequence (Q03181 whole entry): T1 sequence (whole entry)

[8] = target: T1, Peroxisome proliferator-activated receptor delta (Homo sapiens); assay: Transrepression of human GST-tagged PPARdelta LBD assessed as induction of corepressor SMRT-ID2 peptide recruitment by TR-FRET assay
[9] = target: Peroxisome proliferator-activated receptor delta (Homo sapiens) (UniProt Q03181); assay: Antagonist activity at human GST-tagged PPARdelta LBD assessed as reduction in GW501516-induced fluorescein-C33 coactivator recruitment at 1 uM by TR-FRET assay relative to control
[10] = target: T1, Peroxisome proliferator-activated receptor delta (Homo sapiens); assay: Transactivation of human GST-tagged PPARdelta LBD assessed as fluorescein-C33 coactivator recruitment at 10 uM by TR-FRET assay
Adenosine receptor A3 = target: T4, Adenosine receptor A3 (Homo sapiens, UniProt P0DMS8); assay: Displacement of [125I]I-AB-MECA from human A3 adenosine receptor expressed in CHO cell membranes after 60 mins by gamma counting method
T4 sequence (P0DMS8 whole entry): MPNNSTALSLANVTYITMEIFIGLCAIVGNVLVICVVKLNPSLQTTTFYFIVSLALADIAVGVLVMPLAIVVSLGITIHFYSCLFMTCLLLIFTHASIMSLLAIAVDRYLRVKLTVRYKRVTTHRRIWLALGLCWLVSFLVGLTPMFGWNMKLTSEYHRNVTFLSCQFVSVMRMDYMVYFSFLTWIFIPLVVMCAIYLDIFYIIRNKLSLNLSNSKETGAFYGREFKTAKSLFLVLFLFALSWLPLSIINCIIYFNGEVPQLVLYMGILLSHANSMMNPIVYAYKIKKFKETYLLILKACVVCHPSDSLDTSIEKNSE

Mus musculus [11] = assay: Antidiabetic activity in STZ-induced diabetic C57BL/6J mouse assessed as insulin sensitivity by measuring reduction of serum glucose levels at 20 mg/kg,po for 5 days measured at 1 and 4 hrs post last dose; assay type: functional, organism-based
[12] = target: T2, Peroxisome proliferator-activated receptor gamma (Homo sapiens); assay: Displacement of Fluormone-Pan-PPAR Green from human GST-tagged PPARgamma LBD at 20 uM by TR-FRET assay relative to control
[13] = target: T5, Peroxisome proliferator-activated receptor alpha (Homo sapiens) (UniProt Q07869); assay: Displacement of Fluormone-Pan-PPAR Green from human GST-tagged PPARalpha LBD at 20 uM by TR-FRET assay relative to control
T5 sequence (whole entry): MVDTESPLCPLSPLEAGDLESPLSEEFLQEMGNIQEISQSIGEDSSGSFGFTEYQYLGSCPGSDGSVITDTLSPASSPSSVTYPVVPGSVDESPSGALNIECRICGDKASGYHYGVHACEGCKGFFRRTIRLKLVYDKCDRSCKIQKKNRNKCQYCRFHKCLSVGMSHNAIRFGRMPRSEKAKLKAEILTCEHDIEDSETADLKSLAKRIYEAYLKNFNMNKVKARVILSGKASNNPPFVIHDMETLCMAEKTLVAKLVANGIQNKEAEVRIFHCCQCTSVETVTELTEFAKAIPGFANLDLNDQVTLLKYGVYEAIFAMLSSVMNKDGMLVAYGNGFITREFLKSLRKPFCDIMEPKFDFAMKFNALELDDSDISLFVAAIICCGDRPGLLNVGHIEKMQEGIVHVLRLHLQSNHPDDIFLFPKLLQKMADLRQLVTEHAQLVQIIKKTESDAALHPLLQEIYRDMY

Mesenchymal stem cell [14] = assay: Induction of adipogenesis in human bone marrow-derived mesenchymal stem cells assessed as adiponectin level at 20 to 30 uM measured on day 7 after 48 hrs by ELISA; assay type: functional, cell-based
[15] = target: T2, Peroxisome proliferator-activated receptor gamma (Homo sapiens); assay: (§1) Displacement of Fluormone-Pan-PPAR Green from human GST-tagged PPARgamma LBD by TR-FRET assay
Mus musculus [16] = assay: Antidiabetic activity in STZ-induced diabetic C57BL/6J mouse assessed as insulin sensitivity by measuring reduction of serum glucose levels administered po for 5 days measured at 1 and 4 hrs post last dose; assay type: functional, organism-based
[17] = target: T6, Peroxisome proliferator-activated receptor gamma (Homo sapiens, UniProt P37231); assay: as §1
T6 sequence (P37231 whole entry): T2 sequence (whole entry)

COc1ccc(Cl)cc1C(=O)NCCc1ccc(S(=O)(=O)NC(=O)NC2CCCCC2)cc1 [GLYBURIDE]
Activity [1]: 1000 pg/mL | inhibition [2]: 21.5% | Activity [3]: 838 pg/mL

OC[C@H]1O[C@@H](n2cnc3c(NC4CCCC4)nc(Cl)nc32)[C@H](O)[C@@H]1O
Activity [4]: 20 - 30% | Activity (Mesenchymal stem cell [5]): inactive

CNC(=O)[C@H]1S[C@@H](n2cnc3c(NCc4cccc(I)c4)ncnc32)[C@H](O)[C@@H]1O
Activity [1]: 343 pg/mL | Activity [6]: 46.9% | pKi [7]: 5.60 | Activity [8]: Active | inhibition [9]: 22% | Activity [10]: inactive | pKi (Adenosine receptor A3): 9.52 | Activity (Mus musculus [11]): Active | inhibition [12]: 46.9% | inhibition [13]: 13.5% | Activity [3]: 126 pg/mL

CCCn1cc2c(nc(NC(=O)Nc3ccc(OC)cc3)n3nc(-c4ccco4)nc23)n1
Activity (Mesenchymal stem cell [14]): inactive

O[C@@H]1[C@H](O)CS[C@H]1n1cnc2c(NCc3cccc(I)c3)nc(Cl)nc21
Activity [1]: 857 pg/mL | Activity [6]: 54.3% | pKi [7]: 8.32 | inhibition [15]: Dose-dependent effect | Activity [8]: Dose-dependent effect | inhibition [9]: 57% | Activity [10]: inactive | Activity (Mus musculus [16]): Dose-dependent effect | Activity (Mus musculus [11]): Active | Activity [3]: 192 pg/mL

CC(C)Cn1c(=O)n(C)c(=O)c2nc[nH]c21 [ISOBUTYLMETHYLXANTHINE]
Activity [1]: 100 pg/mL | Activity [3]: 100 pg/mL

O=C(NC1CCC1)[C@H]1S[C@@H](n2cnc3c(NCc4cccc(I)c4)ncnc32)[C@H](O)[C@@H]1O
Activity [1]: 633 pg/mL | pKi [7]: 5.58 | pKi [17]: 6.77 | inhibition [13]: 11.7% | Activity [3]: 323 pg/mL

O=C(NC1CC1)[C@H]1S[C@@H](n2cnc3c(NCc4cccc(I)c4)ncnc32)[C@H](O)[C@@H]1O
Activity [1]: 249 pg/mL | pKi [7]: 5.53 | inhibition [12]: 49.1% | inhibition [13]: 37.6% | Activity [3]: 174 pg/mL

O[C@@H]1[C@H](O)CS[C@H]1n1cnc2c(NCc3cccc(I)c3)ncnc21
pKi (Adenosine receptor A3): 8.82

CCNC(=O)[C@H]1O[C@@H](n2cnc3c(N)nc(NCCc4ccc(CCC(=O)O)cc4)nc32)[C@H](O)[C@@H]1O
Activity (Mesenchymal stem cell [5]): inactive

CNC(=O)[C@H]1S[C@@H](n2cnc3c(NCc4cccc(I)c4)nc(Cl)nc32)[C@H](O)[C@@H]1O
Activity [1]: 738 pg/mL | pKi [7]: 6.80 | pKi [17]: 5.34 | inhibition [13]: 37.8% | Activity [3]: 131 pg/mL

CCNC(=O)[C@H]1S[C@@H](n2cnc3c(NCc4cccc(I)c4)ncnc32)[C@H](O)[C@@H]1O
Activity [1]: 242 pg/mL | pKi [7]: 5.50 | inhibition [12]: 37.1% | inhibition [13]: 29.3% | Activity [3]: 118 pg/mL

O[C@@H]1[C@H](O)CS[C@H]1n1cnc2c(NCc3ccccc3Cl)nc(Cl)nc21
Activity [1]: 268 pg/mL | pKi [7]: 6.21 | inhibition [12]: 19.2% | inhibition [13]: 19.2% | Activity [3]: 107 pg/mL

CCNC(=O)[C@H]1O[C@@H](n2cnc3c(N)ncnc32)[C@H](O)[C@@H]1O [NECA]
Activity [4]: 20 - 30% | Activity (Mesenchymal stem cell [5]): inactive

CNC(=O)[C@@]12C[C@@H]1[C@@H](n1cnc3c(NCc4cccc(Cl)c4)nc(C#Cc4ccc(F)c(F)c4)nc31)[C@H](O)[C@@H]2O
Activity (Mesenchymal stem cell [14]): inactive

Cc1c(C)c2c(c(C)c1O)CCC(C)(COc1ccc(CC3SC(=O)NC3=O)cc1)O2 (centres undefined)
inhibition [2]: 23.4%

O=C(NCC1CC1)[C@H]1S[C@@H](n2cnc3c(NCc4cccc(I)c4)ncnc32)[C@H](O)[C@@H]1O
Activity [1]: 490 pg/mL | inhibition [13]: 16.4% | Activity [3]: 242 pg/mL

C[C@@H]1C[C@H]2[C@@H]3CCC4=CC(=O)C=C[C@]4(C)[C@@]3(F)[C@@H](O)C[C@]2(C)[C@@]1(O)C(=O)CO [DEXAMETHASONE]
Activity [1]: 100 pg/mL | Activity [3]: 100 pg/mL

O[C@@H]1[C@H](O)CS[C@H]1n1cnc2c(NCc3cccc(Cl)c3)nc(Cl)nc21
Activity [1]: 442 pg/mL | inhibition [12]: 40.8% | inhibition [13]: 4.5% | Activity [3]: 196 pg/mL
